Results from patent US10213375B2, “Cosmetic or dermatological compositions combining cosmetiques retinaldehyde and glycylglycine oleamide and the cosmetic or dermatological uses thereof” (PIERRE FABRE DERMO-COSMETIQUE, priority 2013, dated 2019).
Where a SMILES comes first, the peptide text is derived from it.

Key:
keratinocytes A431 = test: Modulation of retinylic esters induced by retinoids in keratinocytes (HPLC); type: cell-based; details: for Retinol / Retinylic esters: incubation 24 to 72 h, averaged values; for Total: retinol plus retinylic esters
Description: The study was carried out on keratinocytes A431 in a culture. Indeed, in these cells, no endogenous retinoid was measured. A retinoid has to be applied beforehand in order to measure cell retinoids. The retinoids were measured by HPLC. The incubation in the presence of various agents or combination of agents dissolved in 1% of ethanol in the culture medium, was carried out for 24 to 72 h. These are averaged values expressed in pmol/mg of protein.

epidermal retinoids = details: hairless mice, topical 0.05% for 7 days, then UVB 1 J/cm^2, cited from earlier work; for Prevention of photo-induced depletion of epidermal retinylic esters / retinoids: assayed 24 h after radiation
[1] = system: CD44 and hyaluronate in follicular and interfollicular epidermis; details: topical application, mice; cited from earlier work
glucocerebrosidase = target: T1, glucocerebrosidase (Homo sapiens, UniProt P04062); details: compared with reference 4-methylumbelliferyl glucopyranoside; cited from earlier work
T1 sequence (P04062 40-536): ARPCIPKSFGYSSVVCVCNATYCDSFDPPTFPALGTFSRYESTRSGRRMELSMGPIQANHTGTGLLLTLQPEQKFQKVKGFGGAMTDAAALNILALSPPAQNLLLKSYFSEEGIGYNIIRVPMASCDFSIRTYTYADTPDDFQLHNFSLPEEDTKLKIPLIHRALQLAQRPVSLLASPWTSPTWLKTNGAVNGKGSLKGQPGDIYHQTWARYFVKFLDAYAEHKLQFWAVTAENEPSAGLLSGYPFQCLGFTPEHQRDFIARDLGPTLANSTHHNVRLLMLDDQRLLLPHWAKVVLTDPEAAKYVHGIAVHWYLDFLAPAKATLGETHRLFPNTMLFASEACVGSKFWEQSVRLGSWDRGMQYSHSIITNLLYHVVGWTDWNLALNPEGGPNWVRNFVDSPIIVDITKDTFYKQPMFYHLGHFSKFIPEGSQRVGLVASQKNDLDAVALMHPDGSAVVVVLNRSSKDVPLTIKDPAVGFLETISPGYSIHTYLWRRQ

Compound | Retinol (keratinocytes A431; agent 15 μM in 1% ethanol) | Retinylic esters (keratinocytes A431; agent 15 μM in 1% ethanol) | Total (keratinocytes A431; agent 15 μM) | Induction / modulation of retinylic esters and cell retinoids in keratinocytes (in words) (keratinocytes A431) | other results
NCC(=O)NCC(=O)O [GG, glycylglycine] (H-Gly-Gly-OH) | <10 pmol/mg of protein | <10 pmol/mg of protein | <10 pmol/mg of protein | – | –
CCCCCCCC/C=C\CCCCCCCC(=O)O [OA, oleic acid] | <10 pmol/mg of protein | <10 pmol/mg of protein | <10 pmol/mg of protein | – | –
CC1=C(/C=C/C(C)=C/C=C/C(C)=C/C=O)C(C)(C)CCC1 [RAL, retinaldehyde] | – | – | – | induces a series of retinylic esters | Retinol (keratinocytes A431; agent 2 μM in 1% ethanol): 865 pmol/mg of protein; Retinylic esters (keratinocytes A431; agent 2 μM in 1% ethanol): 280 pmol/mg of protein; Total (keratinocytes A431; agent 2 μM): 1145 pmol/mg of protein; Prevention of photo-induced depletion of epidermal retinylic esters / retinoids (epidermal retinoids): prevent photo-induced depletion of epidermal retinylic esters; Profile in the study of photo-induced depletion of retinoids (epidermal retinoids): best profile; Epidermal hyperplasia [1]: inducing epidermal hyperplasia; Expression of CD44 and of hyaluronate versus retinoic acid and retinol [1]: more strongly increased
CCCCCCCCCCCCCCCC(=O)OC/C=C(C)/C=C/C=C(C)/C=C/C1=C(C)CCCC1(C)C [ROL-Pal, retinyl palmitate] | 389 pmol/mg of protein | 178 pmol/mg of protein | 567 pmol/mg of protein | less cell retinoids than retinaldehyde | –
Cc1cc(O[C@@H]2O[C@H](CO)[C@@H](O)[C@H](O)[C@H]2O)cc2c1O[C@](C)(CCC[C@H](C)CCC[C@H](C)CCCC(C)C)CC2 [delta-tocopherol-glucopyranoside] | – | – | – | – | Release of delta-tocopherol on enzymatic hydrolysis (glucocerebrosidase): slowly releases delta-tocopherol
CC1=C(/C=C/C(C)=C/C=C/C(C)=C/CO)C(C)(C)CCC1 [retinol, reference compound] | – | – | – | – | Prevention of photo-induced depletion of epidermal retinylic esters / retinoids (epidermal retinoids): prevent photo-induced depletion of epidermal retinylic esters
glycylglycine oleamide [OGG] | <10 pmol/mg of protein | <10 pmol/mg of protein | <10 pmol/mg of protein | significantly increased | –
